We go through eleven molecules from patent publication US9908853B2, “Inhibitors of peptidyl arginine deiminase (PAD) enzymes and uses thereof” (University Health Network, priority 2012, dated 2018).

Series [1] deals with ND4 mouse. The conditions noted are these: cited from earlier work.
Series [2] concerns MOG-EAE model. The conditions noted are these: cited from earlier work.
Series [3] deals with PAD enzyme activity (i.e. PAD2 and PAD4). The following applies: after addition of 2CA to human brain extracts; cited from earlier work.
Series [4] has as its target human PAD4 (Homo sapiens, UniProt Q9UM07). Description: Inhibition of PAD4 enzyme activity (BAEE substrate, colorimetric, 530 nm). Format: biochemical.
Series [5] addresses rabbit PAD2 (Oryctolagus cuniculus, UniProt G1T837). Description: Inhibition of PAD2 enzyme activity. Format: biochemical. The conditions noted are these: for IC50: rabbit PAD2, Table 1.
The target in series [6] is T1, human PAD1 (Homo sapiens, UniProt Q9ULC6).
T1 sequence (Q9ULC6 1-663): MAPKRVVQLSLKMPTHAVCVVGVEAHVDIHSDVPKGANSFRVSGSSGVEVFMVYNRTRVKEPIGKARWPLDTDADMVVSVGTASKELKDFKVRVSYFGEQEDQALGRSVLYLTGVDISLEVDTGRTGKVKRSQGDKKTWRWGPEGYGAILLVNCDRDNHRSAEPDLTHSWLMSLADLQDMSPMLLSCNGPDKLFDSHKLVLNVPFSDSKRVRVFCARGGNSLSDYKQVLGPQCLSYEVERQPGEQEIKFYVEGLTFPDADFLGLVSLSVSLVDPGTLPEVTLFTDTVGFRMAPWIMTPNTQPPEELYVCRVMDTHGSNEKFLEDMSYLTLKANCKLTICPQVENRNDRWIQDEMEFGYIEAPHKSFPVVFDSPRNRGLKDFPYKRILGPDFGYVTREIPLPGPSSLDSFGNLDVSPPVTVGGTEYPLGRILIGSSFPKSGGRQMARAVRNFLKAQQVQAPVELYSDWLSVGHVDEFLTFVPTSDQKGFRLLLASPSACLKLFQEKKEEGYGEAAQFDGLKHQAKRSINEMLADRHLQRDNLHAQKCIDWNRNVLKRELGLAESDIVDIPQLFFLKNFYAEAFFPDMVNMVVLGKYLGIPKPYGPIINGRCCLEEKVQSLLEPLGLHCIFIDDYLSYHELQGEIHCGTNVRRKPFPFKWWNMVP
Description: Inhibition of PAD1 enzyme activity (BAEE substrate, colorimetric, 530 nm). It counts as biochemical. The following applies: for Ki: Table 2, read-out: PAD Ki ± SE (μM), PAD1. Here is the method:
Control reaction contained no inhibitor. Enzyme was added to initiate the reaction. The reaction samples were incubated at 37° C. for 30 min. Color reagent was added and the samples were boiled for 15 min. Samples were cooled on ice, further processed, and the absorbance was measured at 530 nm. Remaining activity was calculated as a percentage of the uninhibited samples.

In series [7] the test system is mice. Description: Mouse toxicity studies. It counts as in vivo.
For series [8], the system named is MOG-EAE mouse model. Description: MOG-EAE mouse model, compound of Formula (Ia). Format: in vivo, C57BL/6 mice. Here is the method: On day 8 after the induction of EAE, mice received 2 mg of the compound of Formula ([…].) every other day until day 23. […] Mice were sacrificed on day 24 (i.e. after 2 weeks of treatment) and anti-CD3 staining on spinal cord and brain samples was undertaken.

The nature of series [9]: In vitro cellular toxicity to CHO cells. Format: cell-based. The conditions noted are these: Chinese hamster, read-out: CHO cells IC50 ± SE.
Setting [10] is: Example 8, read-out: equilibrium inhibition constant Ki against PAD2.
[11] abbreviates: Table 2, read-out: PAD Ki ± SE (μM), PAD4.

The structures appear in SMILES notation. Read-outs that look alike come from different tables or passages of the source. Where only a bound is given, the exact number is not on record here.

Sequence of human PAD4 (Q9UM07 whole entry): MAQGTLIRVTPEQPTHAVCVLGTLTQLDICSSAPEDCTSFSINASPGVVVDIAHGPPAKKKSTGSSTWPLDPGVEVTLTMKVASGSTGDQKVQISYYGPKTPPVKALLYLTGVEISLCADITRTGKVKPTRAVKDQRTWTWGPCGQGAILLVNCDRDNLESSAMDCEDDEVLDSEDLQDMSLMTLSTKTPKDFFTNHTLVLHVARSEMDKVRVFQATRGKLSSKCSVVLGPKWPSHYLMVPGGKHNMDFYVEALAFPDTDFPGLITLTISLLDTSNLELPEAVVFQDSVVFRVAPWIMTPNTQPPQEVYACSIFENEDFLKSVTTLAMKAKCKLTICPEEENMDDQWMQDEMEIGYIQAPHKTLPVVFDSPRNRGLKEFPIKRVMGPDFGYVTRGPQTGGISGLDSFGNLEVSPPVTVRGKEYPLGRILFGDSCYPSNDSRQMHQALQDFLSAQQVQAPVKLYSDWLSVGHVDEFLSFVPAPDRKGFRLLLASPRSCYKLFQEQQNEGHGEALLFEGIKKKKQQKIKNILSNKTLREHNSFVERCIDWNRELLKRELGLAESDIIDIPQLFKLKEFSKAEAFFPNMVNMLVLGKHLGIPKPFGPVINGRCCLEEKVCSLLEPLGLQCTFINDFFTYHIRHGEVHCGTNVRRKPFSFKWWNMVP
Sequence of rabbit PAD2 (G1T837 1-665): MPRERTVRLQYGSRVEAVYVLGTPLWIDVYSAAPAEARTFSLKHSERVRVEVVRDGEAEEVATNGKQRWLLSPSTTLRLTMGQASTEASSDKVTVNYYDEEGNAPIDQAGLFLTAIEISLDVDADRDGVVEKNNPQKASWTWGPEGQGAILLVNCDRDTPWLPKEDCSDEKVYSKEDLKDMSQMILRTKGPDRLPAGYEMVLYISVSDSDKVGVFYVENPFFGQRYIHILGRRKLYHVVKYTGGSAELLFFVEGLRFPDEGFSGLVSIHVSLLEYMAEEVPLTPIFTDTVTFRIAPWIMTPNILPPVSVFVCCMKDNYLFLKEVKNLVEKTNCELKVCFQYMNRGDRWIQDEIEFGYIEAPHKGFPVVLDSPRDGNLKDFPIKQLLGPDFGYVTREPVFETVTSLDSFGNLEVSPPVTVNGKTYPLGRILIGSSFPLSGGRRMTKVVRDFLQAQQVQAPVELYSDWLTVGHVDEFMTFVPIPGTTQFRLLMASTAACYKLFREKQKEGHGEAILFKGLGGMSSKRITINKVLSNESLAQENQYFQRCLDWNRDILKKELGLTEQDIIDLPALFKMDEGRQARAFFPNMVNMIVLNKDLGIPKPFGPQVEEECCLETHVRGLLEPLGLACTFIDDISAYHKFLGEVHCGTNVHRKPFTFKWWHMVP

As to `N=C(N)CCl` [Compound 2CA, 2-chloroacetamidine], in series [1] (5 mg/kg i.p. every other day, from 3.5 months up to 6 months of age), the “disease progression in ND4 mice, treatment after early onset” value is “did not show disease progression”. In addition, the “disease in ND4 mice, treatment before onset” value in series [1] (5 mg/kg i.p. every other day, started at 2 months of age) is on record as “essentially prevented the disease”. For the same molecule, the “PAD activity in brain” value in series [1] (ND4 mice, right after cessation of treatment at 6 months) is recorded as “attenuated”. Further, the “deaths in the treatment groups” value in series [1] (ND4 mice, until 6 months of age) is “none died”. Besides, the “G-ratio (axon diameter/fiber diameter), optic nerve” value in series [1] (treated ND4 mice, healthy littermates 0.74+0.13, ND4 0.96+0.3) is 0.9+0.15. In [2] (5 mg/kg i.p. every other day starting day 9), the “survival by day 30” value was ~50%. Moreover, in series [2] (EAE mice), the “PAD activity in brain white matter” value is recorded as “effectively attenuated” and the “PAD activity in spinal cord” value was “reductions to normal levels”. Besides, the relapse entry in [2] (treated group) is recorded as “No relapse”. Moreover, the disease lethality entry in [2] (treatment started before immunization) is reported as “zero”. Moreover, in series [3], the “PAD activity in NAWM extracts” value was “declined”.
Take `CC1(C)NC(=O)N(CN2CCNCC2)C1=O` [Formula (Ia)]: the IC50 is 48.3 ± 7.4 µM in series [4]; ≤ 3820 µM in series [4] (read-out: IC50 (μM), PAD4, human PAD4, Table 1, varies with salt form and batch of the enzyme); 763 µM in series [6] (Table 1). Also, the Ki worked out at 7.4 µM in series [4] and 0.93 µM in series [5]. The inhibition at 30 µM in [4] (read-out: Inhibition of the enzyme activity) worked out at 78%. In addition, the general toxicity entry in series [7] (10 mg/mouse for 5 days) and in [7] (single 20 mg/mouse dose) was “no general toxicity” throughout. Moreover, the clinical scores in series [8] (2 mg b.i.d. i.p. every other day, day 8 to day 23, control group higher than 2) was ~1. Also, the “CD3 markers in brain” value in series [8] (anti-CD3 staining, sacrificed day 24, untreated 4.8±0.19) is on record as 3.8±0.23 /mm^2. The “PAD activity in treated brain samples” value in series [8] (sacrificed day 24) is “much reduced”.
As to `CCOC(=O)CC1(C)NC(=O)N(CN2CCNCC2)C1=O` (centres unmarked) [Formula (Ib), Ethyl [4-methyl-2,5-dioxo-1-(piperazin-1-ylmethyl)imidazolidin-4-yl]acetate], the IC50 came out at 36 ± 18 µM in series [4] (human PAD4, Table 1, varies with salt form and batch of the enzyme, read-out: IC50 (μM), PAD4); 12.3 ± 4.8 µM in series [5]. Further, the Ki in [5] (setting [10]) amounted to 0.46 µM.
Consider `CC(C)(C)OC(=O)CC1(C)NC(=O)N(CN2CCNCC2)C1=O` (centres unmarked) [Formula (Ic), tert-Butyl-[4-methyl-2,5-dioxo-1-(piperazin-1-ylmethyl)imidazolidin-4-yl]acetate], for which, in series [5] (setting [10]), the Ki was found to be 0.65 µM. The molecule further returned an IC50 in series [5] of 16.8 ± 7 µM.
Turning to `CN1CCN(CN2C(=O)NC(C)(C)C2=O)CC1` [I(e)], the Ki stood at 45.6 ± 9 µM in series [4] (setting [11]) and 115 ± 5.5 µM in series [6]. The IC50 in [9] stood at 143 ± 4 µM.
For `CC1(C)NC(=O)N(CCn2ccnc2)C1=O` [I(g)], the Ki in series [4] (setting [11]) turned out to be 4 ± 1.7 µM; in series [6] it was 110 ± 4 µM. Moreover, the IC50 in series [9] worked out at 1990 ± 823 µM.
Regarding `CC1(C)NC(=O)N(CCNCC(N)=O)C1=O` [I(h)], the “Inhibition of PAD4, in words” value in series [4] was “good activity”. For the same molecule, the values for the Ki in series [4] (setting [11]) and in series [6] were 21.8 ± 7.1 µM and 33.6 ± 2.6 µM, respectively.
With `CC1(C)NC(=O)N(CCN)C1=O` [I(i)], the Ki in series [4] (setting [11]) was 317 ± 32.8 µM; in series [6], 117 ± 41.1 µM. For the same molecule, the IC50 in series [9] worked out at 5840 ± 2370 µM.
On the same counts, the results for `CC1(C)NC(=O)N(CCNCCN)C1=O` [I(j)] are 52 ± 34.1 µM, 55.5 ± 12.3 µM and 2690 ± 175 µM.
As for `CC1(C)NC(=O)N(CCCN)C1=O` [I(k)], the Ki in series [4] (setting [11]) was found to be 384 ± 41 µM; in [6] it was 105 ± 22.1 µM.
Consider `CC1(C)NC(=O)N(CCCNCCN)C1=O` [I(l)], for which the Ki came to 123 ± 14.7 µM in [4] (setting [11]) and 42.9 ± 5 µM in series [6]. The IC50 in series [9] was determined as 16700 ± 31600 µM.

A word on the IC50: it is the point on the concentration scale where inhibition reaches its midpoint. One may read the Ki as a measure of affinity in units of concentration, obtained from inhibition or displacement. One may read the inhibition as the percentage by which the read-out fell short of the control.
